Assay results taken from paper PMC10819979, “Antitumor Mechanism and Therapeutic Potential of Cordycepin Derivatives” (Molecules, 2024).

Legend:
MCF7 cells [1] = experiment: MTT cell proliferation assay, MCF7; assay type: cell-based; settings: Homo sapiens, 48 h incubation, x̄ ± s, n = 6
Description: (§1) MCF7, HepG2, SGC-7901 and MCF-10A were purchased from the National Infrastructure of Cell Line Resources in the Chinese Academy of Sciences (Shanghai Institute of Biochemistry and Cell Biology, Shanghai, China). Cells were maintained using RPMI-1640 medium with 10% fetal bovine serum. The cells were maintained at 37 °C in a 5% CO2-containing incubator for all treatments. Logarithmic growth phase cells were used in all experiments.
(§2) The effect of compounds on the proliferation of cancer cells was determined with an MTT assay. Cells monolayer in exponential growth were seeded in 96-well plates at 5 × 10^3 cells/well. After cultured at 37 °C for 24 h, the culture medium was removed, then compounds (3a–4c) (1.25, 2.5, 5, 10, 20, 40, 80 μM) and HCPT (4, 8, 16 μM) were added. After 48 h incubation, 100 µL of MTT was added to each well and then cultured for 4 h in a 37 °C incubator. After that, the medium was aspirated, 150 µL of DMSO was then added to each well, and the 96-well plates were placed on an orbital shaker for 12 min until the formazan dissolved completely. The absorbance was measured at a test wavelength of 490 nm with a microplate reader, the optical density (OD) values were tested and the inhibitory rate and half inhibitory concentration (IC50) were calculated for each administration group.

HepG2 cells = experiment: MTT cell proliferation assay, HepG2; assay type: cell-based; settings: Homo sapiens, 48 h incubation, x̄ ± s, n = 6
Description: as §1, §2

SGC-7901 cells = experiment: MTT cell proliferation assay, SGC-7901; assay type: cell-based; settings: Homo sapiens, 48 h incubation, x̄ ± s, n = 6
Description: as §1, §2

MCF-10A cells = experiment: In vitro cytotoxicity against normal breast cell line; assay type: cell-based
Description: as §1, §2

MCF7 cells [2] = experiment: Apoptosis of MCF7 cells by flow cytometry; assay type: cell-based; settings: MCF7, 56 μM, 48 h, n = 3
Description: Cells were cultured in the medium for 24 h and treated with compounds in different concentrations and HCPT incubated for 48 h. The cells were centrifuged at 1000 rpm for 10 min and washed with PBS. Subsequently, the cells were […] stained with annexin V-FITC (10 μL) and propidium iodide (PI; 10 μL). The proportion of apoptotic cells was then measured by flow cytometry.

MCF7 cells [3] = experiment: Cell cycle detection by flow cytometry (PI); assay type: cell-based; settings: 14, 28 and 56 μM, dose-dependent
Description: After the treatments, the harvested cells were incubated at 70% in ice-ethanol overnight. Subsequently, they were washed twice using PBS and incubated with propidium iodide (PI) and RNase A. Finally, the proportions of cells in different cell cycle phases were determined by flow cytometry.

MCF7 cells [4] = experiment: Mitochondrial membrane potential assay (rhodamine 123, flow cytometry); assay type: cell-based; settings: MCF7, dose–effect relationship
Description: MCF7 cells were cultured in 6-well plates, after treatment with compounds in different concentrations and positive control group (HCPT), cells were harvested, washed with PBS, and then stained with rhodamine 123 (100 µg) for 30 min at 37 °C. The cells were collected by pipetting, washed twice with PBS and analyzed by flow cytometry (BD Biosciences, San Jose, CA, USA).

Bcl-2 = experiment: Western Blot, Bcl-2 expression in MCF7 cells; assay type: cell-based; settings: MCF7, 14, 28, 56 μM, 48 h
Description: (§3) Cells were cultured in the medium for 24 h and treated with compounds in different concentrations and HCPT for 48 h. After lysis buffer (RIPA: PMSF = 100:1) was used to lyse cells. The lysate was further sonicated and centrifuged at 12,000 rpm for 15 min, then the supernatant obtained was collected and the denatured protein mixture was subjected to SDS gel electrophoresis and transferred to nitrocellulose membranes, and blocked with containing 5% nonfat milk. Then, the membranes were incubated with the primary antibodies (1:1000, overnight 4 °C) and secondary antibodies (1:5000, 1 h). Then, ECL Solution was used to detect the antigen–antibody complexes. The data were analyzed by NIH Image J 1.53a software.

Caspase-9 = experiment: Western Blot, Caspase-9 expression in MCF7 cells; assay type: cell-based; settings: MCF7, 14, 28, 56 μM, 48 h
Description: as §3

Caspase-3 = experiment: Western Blot, Caspase-3 expression in MCF7 cells; assay type: cell-based; settings: MCF7, 14, 28, 56 μM, 48 h
Description: as §3

Bax = experiment: Western Blot, Bax expression in MCF7 cells; assay type: cell-based; settings: MCF7, 14, 28, 56 μM, 48 h
Description: as §3

p53 = experiment: Western Blot, p53 expression in MCF7 cells; assay type: cell-based; settings: MCF7, 14, 28, 56 μM, 48 h
Description: as §3

MCF7 = test system: MCF7; design: method as in PMID 32163051, PMID 22821173; settings: breast cancer cell viability; cited from earlier work
MDA-MB-453 cells = test system: MDA-MB-453 cells; design: method as in PMID 32163051, PMID 22821173; settings: breast cancer cell viability; cited from earlier work

Row | SMILES | IC50 (MCF7 cells [1]) [µM] | IC50 (HepG2 cells) [µM] | IC50 (SGC-7901 cells) [µM] | other results
1 | CC[C@@]1(O)C(=O)OCc2c1cc1n(c2=O)Cc2cc3cc(O)ccc3nc2-1 [10-hydroxycamptothecin (HCPT), 10-hydroxycamptothecin, reference compound] | 7.56 ± 0.05 | 6.56 ± 0.45 | 7.96 ± 0.65 | –
2 | CC(C)(C)[Si](C)(C)OC[C@@H]1C[C@@H](O)[C@H](n2cnc3c(NC(=O)c4cccs4)ncnc32)O1 [Compound 3a, 5′-O-(Tert-butyldimethylsilyl)-6-thiophenecarboxamide-3′-deoxya-denosine] | 114 ± 2.03 | 134 ± 5.12 | 102 ± 1.08 | –
3 | CC(C)(C)[Si](C)(C)OC[C@@H]1C[C@@H](O)[C@H](n2cnc3c(NC(=O)c4ccco4)ncnc32)O1 [Compound 3b, 5′-O-(Tert-butyldimethylsilyl)-6-furancarboxamide-3′-deoxyadenosine] | 98.03 ± 0.04 | 60.4 ± 1.15 | 41.7 ± 2.36 | –
4 | CC(C)(C)[Si](C)(C)OC[C@@H]1C[C@@H](O)[C@H](n2cnc3c(NC(=O)c4ccc(Cl)nc4)ncnc32)O1 [Compound 3c, 5′-O-(Tert-butyldimethylsilyl)-6-6-chloroformamide-3′-deoxya-denosine] | 45.8 ± 1.01 | 87.01 ± 0.04 | 82.6 ± 1.48 | –
5 | O=C(Nc1ncnc2c1ncn2[C@@H]1O[C@H](CO)C[C@H]1O)c1cccs1 [Compound 4a, 6-Thiophenecarboxamide-3′-deoxyadenosine] | 27.6 ± 0.52 | 68.8 ± 3.34 | 38.93 ± 0.06 | in vitro cytotoxicity against MCF-10A (MCF-10A cells): low toxicity; percentage of apoptotic cells (MCF7 cells [2]): 50.422 ± 1.862%; effect on MCF7 cell cycle (MCF7 cells [3]): cell cycle arrest at the G0/G1 phase; positive expression rate and cell membrane potential with increase in dose (MCF7 cells [4]): decrease gradually; expression of Bcl-2 protein (Bcl-2): down-regulate; expression of Caspase-9 (Caspase-9): up-regulate; expression of Caspase-3 (Caspase-3): up-regulate; expression of Bax (Bax): up-regulate; expression of p53 (p53): up-regulate
6 | O=C(Nc1ncnc2c1ncn2[C@@H]1O[C@H](CO)C[C@H]1O)c1ccco1 [Compound 4b, 6-Furancarboxamide-3′-deoxyadenosine] | 40.9 ± 1.67 | 33.37 ± 0.08 | 86.3 ± 2.35 | –
7 | O=C(Nc1ncnc2c1ncn2[C@@H]1O[C@H](CO)C[C@H]1O)c1ccc(Cl)nc1 [Compound 4c, 6-6-Chloronicotinamide-3′-deoxyadenosine] | 45.3 ± 0.58 | 48.4 ± 0.79 | 80.4 ± 1.05 | –
8 | Nc1ncnc2c1ncn2[C@@H]1O[C@H](CO)C[C@H]1O [Cordycepin] | 46.9 ± 1.62 | 51.8 ± 1.36 | 51.3 ± 3.77 | IC50 (MCF7): 135 µM; IC50 (MDA-MB-453 cells): 70 µM
